# Laboratory results published in the NIST ThermoML archive (doi:10.1021/acs.jced.7b00452).
# Numbers after ± are expanded uncertainties.
# Test: mn = molality of the nth substance listed, in mol/kg
# Conditions: 101.3 kPa, Liquid; for speed of sound: Single path-length method; for mass density: Vibrating tube method
structure (smiles),measurement,setting,value
CCN(CC)CCNC(=O)c1ccc(N)cc1.Cl [procainamide hydrochloride] + O,speed of sound,"298.15 K, m1 = 0.0292",1501.6 ± 1 m/s
same,speed of sound,"298.15 K, m1 = 0.0328",1502.1 ± 1 m/s
same,speed of sound,"298.15 K, m1 = 0.043",1503.6 ± 1 m/s
same,speed of sound,"298.15 K, m1 = 0.0551",1505.4 ± 1 m/s
same,speed of sound,"298.15 K, m1 = 0.0689",1507.5 ± 1 m/s
same,speed of sound,"298.15 K, m1 = 0.076",1508.5 ± 1 m/s
same,speed of sound,"298.15 K, m1 = 0.0804",1509.1 ± 1 m/s
same,speed of sound,"298.15 K, m1 = 0.0938",1511.1 ± 1 m/s
same,speed of sound,"298.15 K, m1 = 0.1119",1513.8 ± 1 m/s
same,speed of sound,"298.15 K, m1 = 0.1194",1514.9 ± 1 m/s
same,speed of sound,"298.15 K, m1 = 0.1306",1516.6 ± 1 m/s
same,speed of sound,"298.15 K, m1 = 0.1402",1517.9 ± 1 m/s
same,speed of sound,"298.15 K, m1 = 0.1601",1520.9 ± 1 m/s
same,speed of sound,"298.15 K, m1 = 0.1715",1522.6 ± 1 m/s
same,mass density,"298.15 K, m1 = 0.0292",998.359 ± 0.1 kg/m3
same,mass density,"298.15 K, m1 = 0.0328",998.521 ± 0.1 kg/m3
same,mass density,"298.15 K, m1 = 0.043",998.975 ± 0.1 kg/m3
same,mass density,"298.15 K, m1 = 0.0551",999.51 ± 0.1 kg/m3
same,mass density,"298.15 K, m1 = 0.0689",1000.14 ± 0.1 kg/m3
same,mass density,"298.15 K, m1 = 0.076",1000.45 ± 0.1 kg/m3
same,mass density,"298.15 K, m1 = 0.0804",1000.66 ± 0.1 kg/m3
same,mass density,"298.15 K, m1 = 0.0938",1001.27 ± 0.1 kg/m3
same,mass density,"298.15 K, m1 = 0.1119",1002.05 ± 0.1 kg/m3
same,mass density,"298.15 K, m1 = 0.1194",1002.38 ± 0.1 kg/m3
same,mass density,"298.15 K, m1 = 0.1306",1002.87 ± 0.1 kg/m3
same,mass density,"298.15 K, m1 = 0.1402",1003.3 ± 0.11 kg/m3
same,mass density,"298.15 K, m1 = 0.1601",1004.18 ± 0.11 kg/m3
same,mass density,"298.15 K, m1 = 0.1715",1004.66 ± 0.11 kg/m3
same,speed of sound,"308.15 K, m1 = 0.0292",1524.2 ± 1 m/s
same,speed of sound,"308.15 K, m1 = 0.0328",1524.6 ± 1 m/s
same,speed of sound,"308.15 K, m1 = 0.043",1525.8 ± 1 m/s
same,speed of sound,"308.15 K, m1 = 0.0551",1527.1 ± 1 m/s
same,speed of sound,"308.15 K, m1 = 0.0689",1528.6 ± 1 m/s
same,speed of sound,"308.15 K, m1 = 0.076",1529.5 ± 1 m/s
same,speed of sound,"308.15 K, m1 = 0.0804",1530 ± 1 m/s
same,speed of sound,"308.15 K, m1 = 0.0938",1531.7 ± 1 m/s
same,speed of sound,"308.15 K, m1 = 0.1119",1533.8 ± 1 m/s
same,speed of sound,"308.15 K, m1 = 0.1194",1534.8 ± 1 m/s
same,speed of sound,"308.15 K, m1 = 0.1306",1536.1 ± 1 m/s
same,speed of sound,"308.15 K, m1 = 0.1402",1537.3 ± 1 m/s
same,speed of sound,"308.15 K, m1 = 0.1601",1539.7 ± 1 m/s
same,speed of sound,"308.15 K, m1 = 0.1715",1541.1 ± 1 m/s
same,mass density,"308.15 K, m1 = 0.0292",995.314 ± 0.11 kg/m3
same,mass density,"308.15 K, m1 = 0.0328",995.471 ± 0.11 kg/m3
same,mass density,"308.15 K, m1 = 0.043",995.914 ± 0.1 kg/m3
same,mass density,"308.15 K, m1 = 0.0551",996.435 ± 0.1 kg/m3
same,mass density,"308.15 K, m1 = 0.0689",997.048 ± 0.1 kg/m3
same,mass density,"308.15 K, m1 = 0.076",997.346 ± 0.1 kg/m3
same,mass density,"308.15 K, m1 = 0.0804",997.55 ± 0.1 kg/m3
same,mass density,"308.15 K, m1 = 0.0938",998.14 ± 0.1 kg/m3
same,mass density,"308.15 K, m1 = 0.1119",998.919 ± 0.1 kg/m3
same,mass density,"308.15 K, m1 = 0.1194",999.225 ± 0.1 kg/m3
same,mass density,"308.15 K, m1 = 0.1306",999.706 ± 0.1 kg/m3
same,mass density,"308.15 K, m1 = 0.1402",1000.12 ± 0.1 kg/m3
same,mass density,"308.15 K, m1 = 0.1601",1000.98 ± 0.1 kg/m3
same,mass density,"308.15 K, m1 = 0.1715",1001.46 ± 0.1 kg/m3
same,speed of sound,"318.15 K, m1 = 0.0292",1538.9 ± 1 m/s
same,speed of sound,"318.15 K, m1 = 0.0328",1539.2 ± 1 m/s
same,speed of sound,"318.15 K, m1 = 0.043",1540.3 ± 1 m/s
same,speed of sound,"318.15 K, m1 = 0.0551",1541.3 ± 1 m/s
same,speed of sound,"318.15 K, m1 = 0.0689",1542.7 ± 1 m/s
same,speed of sound,"318.15 K, m1 = 0.076",1543.3 ± 1 m/s
same,speed of sound,"318.15 K, m1 = 0.0804",1543.7 ± 1 m/s
same,speed of sound,"318.15 K, m1 = 0.0938",1544.9 ± 1 m/s
same,speed of sound,"318.15 K, m1 = 0.1119",1546.4 ± 1 m/s
same,speed of sound,"318.15 K, m1 = 0.1194",1547.1 ± 1 m/s
same,speed of sound,"318.15 K, m1 = 0.1306",1548 ± 1 m/s
same,speed of sound,"318.15 K, m1 = 0.1402",1548.9 ± 1 m/s
same,speed of sound,"318.15 K, m1 = 0.1601",1550.6 ± 1 m/s
same,speed of sound,"318.15 K, m1 = 0.1715",1551.6 ± 1 m/s
same,mass density,"318.15 K, m1 = 0.0292",991.46 ± 0.11 kg/m3
same,mass density,"318.15 K, m1 = 0.0328",991.615 ± 0.11 kg/m3
same,mass density,"318.15 K, m1 = 0.043",992.05 ± 0.11 kg/m3
same,mass density,"318.15 K, m1 = 0.0551",992.563 ± 0.11 kg/m3
same,mass density,"318.15 K, m1 = 0.0689",993.168 ± 0.11 kg/m3
same,mass density,"318.15 K, m1 = 0.076",993.461 ± 0.11 kg/m3
same,mass density,"318.15 K, m1 = 0.0804",993.641 ± 0.11 kg/m3
same,mass density,"318.15 K, m1 = 0.0938",994.212 ± 0.11 kg/m3
same,mass density,"318.15 K, m1 = 0.1119",994.982 ± 0.11 kg/m3
same,mass density,"318.15 K, m1 = 0.1194",995.305 ± 0.11 kg/m3
same,mass density,"318.15 K, m1 = 0.1306",995.779 ± 0.11 kg/m3
same,mass density,"318.15 K, m1 = 0.1402",996.189 ± 0.11 kg/m3
same,mass density,"318.15 K, m1 = 0.1601",997.035 ± 0.11 kg/m3
same,mass density,"318.15 K, m1 = 0.1715",997.488 ± 0.1 kg/m3
